Measured values reported in patent US7786142B2, “Heterocyclic compounds as pSTAT3/IL-6 inhibitors” (Orchid Research Laboratories, Ltd., priority 2005, dated 2010).
“Also recorded” adds a separate entry of the source.

Experiments:
[1] = system: NCI H460 Xenograft; experiment: In-vivo anti-cancer activity, NCI H460 xenograft model; design: species or system SCID mice; details: for in-vivo anti-cancer activity: NCI H460 Xenograft model, in words
Procedure: Experiments were carried out using 6-8 week old female athymic SCID (Severe Combined Immune Deficient) mice. The mice were kept in laminar flow rooms (housed in Individually Ventilated Cages) at constant temperature and humidity. They had free access to food and water. Tumors were obtained form ATCC and maintained by s.c. passages of tumor fragments (about 2×2×2 mm) in healthy mice according to standard reported procedures. Each experimental group included six/eight mice bearing bilateral tumors. Tumors were implanted on day 0, and tumor growth was followed by biweekly measurements of tumor diameters with a Vernier caliper. Tumor Volume (TV) was calculated according to the following formula: TV (mm^3)=d^2 XD/2, where d and D are the shortest diameter and the longest diameter of the tumor, respectively. The drug treatment started when tumors were just measurable (Mean TV=150-200 mm^3).
(§1) All test compound/standard drugs were delivered by gavage in a volume of 10 ml/kg. Drugs were administered every day for single time to a period of 21 days. Control mice were treated with the drug solvent/vehicle. Tumor size is measured every alternate days and body weight is recorded daily.
(§2) • a) Tumor Volume Inhibition (TVI): A TVI value higher than 80% is indicative of active compounds. • b) T/C % is also another indicator for the activity. A reproducible 20% T/C is considered as therapeutically active. • c) Log Cell Kill (LCK): A LCK value greater than 1 is indicative of active compounds. • d) Relative Tumor Volume (RTV), Tumor Delay and % Tumor volume change are also considered as valuable additional parameters for assessment. • e) Toxic effects of drug treatment were assessed by Body Weight Loss % • f) Lethal toxicity was defined as any death in treated groups occurring before any control death. Mice were inspected daily for mortality and toxic clinical signs.

[2] = system: IL-6; experiment: IL-6 in culture supernatants of NCIH 460 cells (ELISA); assay type: cell-based, Human; details: NCIH 460, 5 hours
Procedure: Human Lung Cancer cell line (NCIH 460) is used for IL-6 measurement. 5000 cells/well were seeded in a 96 well plate and incubated in CO2 incubator at 37° C. for 24 hours. After 24 hours of incubation the medium from all wells were completed removed and added 100 μl of fresh DMEM containing 10% FCS. 100 μl of different concentrations of the drug were added and incubated for 5 hours in CO2 incubator at 37° C. After 5 hours of incubation the supernatants were collected and stored at −80° C. The concentration of IL-6 in the supernatant was measured using ELISA kit and the IC50 value of the compound was determined from the dose response curve, (See Table II).

[3] = system: HCT116 cells; experiment: Anti-cancer screen (MTT), HCT116 cells; assay type: cell-based; details: Homo sapiens, HCT-116, HCT116, 48 hours, concentrations tested 0.01-100 μM
Procedure: (§3) Experimental drugs are screened for anti-cancer activity in three cell lines for their GI50, TGI and LC50 values (using five concentrations for each compound). The cell lines are maintained in DMEM containing 10% fetal bovine serum. 96 well micro titer plates are inoculated with cells in 100 μL for 24 hours at 37° C., 5% CO2, 95% air and 100% relative humidity. 5000 HCT116 cells/well, 5000 NCIH460 cells/well and 5000 U251 cells/well are plated. A separate plate with these cell lines is also inoculated to determine cell viability before the addition of the compounds (T0), (See Table I).
(§4) Following 24-hours incubation, experimental drugs are added to the 96 well plates. Each plate contains one of the above cell lines and the following in triplicate: five different concentrations (0.01, 0.1, 1, 10 and 100 μM) of four different compounds, appropriate dilutions of a cytotoxic standard and control (untreated) wells. Compounds are dissolved in DMSO to make 20 mM stock solutions on the day of drug addition and frozen at −20° C. Serial dilutions of these 20 mM stock solutions are made in complete growth medium such that 100 μL of these drug solutions in medium, of final concentrations equaling 0.01, 0.1, 1, 10 and 100 μM can be added to the cells in triplicate. Standard drugs whose anti-cancer activity has been well documented and which are regularly used are Doxorubicin and SAHA, (See Table I).
(§5) For T0 measurement, 24 hours after seeding the cells, 10 μL of 3-(4,5-Dimethyl-2-thiazolyl)-2,5-diphenyl-2H-tetrazolium (MTT) solution per well is added and incubation carried out for 3 hours at 37° C., 5% CO2, 95% air and 100% relative humidity, protected from light. Cells incubated with compounds for 48 hours are treated similarly except with the addition of 20 μL MTT solution per well and a subsequent incubation under the same conditions. After 3 hours of MTT incubation, well contents are aspirated carefully followed by addition of 150 μL DMSO per well. Plates are agitated to ensure solution of the formazan crystals in DMSO and absorbance read at 570 nm, (See Table I).
(§6) Percent growth is calculated for each compound's concentration relative to the control and zero measurement wells (T0; viability right before compound addition). If a test well's O.D. value is greater than the T0 measurement for that cell line % Growth=(test−zero)/(control−zero)×100

[4] = mouse, in vivo
Procedure: as §1, §2

[5] = system: NCIH460, HCT116, MDAMB-231/U 251; experiment: Anti-cancer screen, mean GI50 over the cell lines; assay type: cell-based
Procedure: as §3, §4, §5, §6

[6] = system: MDAMB-231/U 251; experiment: Anti-cancer screen (MTT), MDAMB-231/U 251 cells; assay type: cell-based; details: MDAMB-231/U 251, 48 hours, concentrations tested 0.01-100 μM; for CC50: read-out: LC50 (the source's name)
Procedure: as §3, §4, §5, §6

[7] = system: NCIH460 cells; experiment: Anti-cancer screen (MTT), NCIH460 cells; assay type: cell-based; details: Homo sapiens, NCI-H460, NCIH460, 48 hours, concentrations tested 0.01-100 μM; for CC50: read-out: LC50 (the source's name)
Procedure: as §3, §4, §5, §6

[8] = system: Jak2/Stat3 signaling; details: literature (Burdelya et al., 2002; Meydan et al., 1996; Constantin et al., 1998); cited from earlier work
[9] = system: pSTAT3; experiment: pSTAT3 inhibition (Western blot in DU 145 / SKOV-3 cells; ELISA in HepG2 cells); assay type: cell-based; details: in words; FIGS. 1 and 2
Procedure: Western blot analysis was performed as described by Kammer W et. al (J Biol Chem 271, 23634-23637, and J Biol Chem 273, 31222-31229). Briefly, 60 μg of whole cell extract was solubilized in Laemmeli buffer (50 mM Tris/HCl, pH 6.8, 2% SDS, 10% glycerol, 1 mM DTT, 1× Protease inhibitor cocktail, SET-3 (Calbiochem), 1 mM Sodium Ortho-vanadate) boiled for 5-10 minutes, and separated on a 10 or 12% acrylamide SDS gel. After protein transfer, the nitrocellulose membranes were blocked in blocking buffer for 2 hour (1×TBS, 0.1% Tween-20, 5% BSA). Membranes were incubated for 20 hours in blocking buffer containing, STAT3 P-Tyr705 (Santa Cruz Biotech), STAT3 (H-190, Santa Cruz Biotech) and Actin (C-2, Santa Cruz Biotech) antibody at 1:300 dilution. Detection was performed with HRP conjugated antimouse/antirabbit IgG (Santa Cruz Biotech) at a dilution of 1:3,000 for 1 hour. Visualization was performed using an Enhanced Chemiluminescence detection kit (Amersham). See Appended Diagrams: FIGS. 1 and 2. […]
Capture Antibody was diluted to a working concentration of 2.0 μg/mL in PBS. […] The plates were made ready after 2-3 washes with wash buffer. […] The reaction was stopped by adding 50 μl of stop solution to each well and the OD was determined using a microplate reader at 450 nm.

What does the source list for `COc1ccc(CNC[C@@H](O)COc2cccc3[nH]c4ccccc4c23)c(OC)c1` [Example 24, (2R)-1-(9H-carbazol-4-yloxy)-3-[(2,4-dimethoxy-benzyl)amino]propan-2-ol]?
in-vivo anti-cancer activity [1]: good anti-cancer activity; IL-6 Inhibition IC50 (μM) [2]: No activity; GI50 [3]: 8.3 µM; IC (TGI) [3]: 53 µM; LC50 (concentration for 50% net cell kill relative to T0) [3]: 80 µM; body weight loss [4]: no body weight loss was observed; GI50 [5]: 9 µM; GI50 [6]: 18 µM; IC (TGI) [6]: 51 µM; CC50 [6]: 79 µM; GI50 [7]: 0.76 µM; IC (TGI) [7]: 53 µM; CC50 [7]: 67 µM

With `N#C/C(=C/c1ccc(O)c(O)c1)C(=O)NCc1ccccc1` [AG490] as the compound, how does the “concentration needed to show Jak/Stat3 signaling inhibition and anti-tumor activity” value [8] read?
The value was 50 to 100 µM.

Which results are given for `COc1ccc(CNCC(O)COc2cccc3[nH]c4ccccc4c23)c(OC)c1` (racemic) [Example 1, 1-(9H-carbazol-4-yloxy)-3-[(2,4-dimethoxybenzyl)amino]propan-2-ol]?
in-vivo anti-cancer activity [1]: good in-vivo anti-cancer activity; inhibition against NCI H460 Xenograft model ([1]; SCID mice, gavage, every day for 21 days): 52%; inhibition at 0.1 µM ([2]; Homo sapiens, NCI-H460, 0.1 μM): 45.7%; inhibition at 1 µM ([2]; Homo sapiens, NCI-H460, 1 μM): 55.3%; IC50 ([2]; Homo sapiens, NCI-H460, read-out: IL-6 Inhibition IC50): 5 µM; GI50 [3]: 8.5 µM; IC (TGI) [3]: 39 µM; LC50 (concentration for 50% net cell kill relative to T0) [3]: 79 µM; pSTAT3 inhibition [9]: work through pSTAT3 inhibition; also recorded: mechanism of action was through pSTAT3 inhibition; GI50 [5]: 4.8 µM; GI50 [6]: 5 µM; IC (TGI) [6]: 9.8 µM; CC50 [6]: 60 µM; GI50 [7]: 0.78 µM; IC (TGI) [7]: 18 µM; CC50 [7]: 62 µM
